“Also recorded” adds a separate entry of the source.
Key:
HL-60 cells [1] = assay: Reactive oxygen species (peroxides), DCFH-DA flow cytometry; type: cell-based, human
Procedure: FIG. 4. Boswellic acid analogs produce early generation of reactive oxygen species. In order to determine the intracellular content of intracellular peroxides, HL-60 cells in both treated and untreated control groups of 1×10^6 cells were incubated with […] of DCFH-DA for 30 min prior to termination of a 6 hr treatment with the indicated concentrations of compound designated “c” which is the compound of formula 1, wherein R3=COCH2CH2CH3, […], R4+R5=O. Treatment with the compound designated “c” was associated with an increase in DCFH-DA derived fluorescence. The compound of formula 1 where R3=COCH2CH2CH3, […], R4+R5=O was taken as a prototype to investigate the mechanism of cell death mediated by induction of apoptosis. […] At the highest concentration used the peroxide generation was relatively of low order because of ROS associated cell death. BSO was used as positive control. The endogenous generation of peroxides was measured using a non-fluorescent probe DCFH-DA which upon entering the cell is deesterified to DCFH which is oxidized by the reactive oxygen species to a fluorescent product DCF that remains entrapped within the cells offering analysis by flow cytometery [[…] et al, 2006]. […] Thereafter cells were washed and stained for 1 hr with DCFH-DA and analysed on flow cytometer. […]

[2] = test system: caspase-3 in Molt-4 cells; assay: Caspase-3 activation, colorimetric, Molt-4; type: cell-based, human; details: 6 hr
Procedure: (§1) FIGS. 8A-8B. Caspase activation in HL-60 cells by boswellic acid analogs. FIG. 8A depicts the results of a colorimetric evaluation of caspase-3 activation in HL-60 cells and Molt-4 cells. Cells were treated with a compound designated “c” (formula 1 compound wherein R3=COCH2CH2CH3, […] and R4+R5=O) at concentrations indicated for 6 hours. Caspase-3 inhibitor (DEVD-fmk) was added 30 min prior to the addition of caspase-3 substrate (DEVD-pNA) to the lysate. Data are mean of triplicate determinations with coefficients of variation less than 10%. […] Caspase-9 inhibitor LEHD-CHO was added 30 min prior to the addition of caspase-9 substrate to validate the specificity of caspase-9. Caspase-9 activity was measured fluorometrically. Data are a mean of triplicate determinations with a coefficient of variation of less than 10%. Caspases are important cysteine-proteases that are involved in the cleavage of DNA specifically producing 180 bp DNA fragments. The enzymes act through different signaling pathways. […] Caspase-9 activity was determined fluorometrically and caspase-3 colorimetrically using kits and the instruction provided by the manufacturer (BD pharmingen, USA). Caspase-3 activity was determined in both Molt-4 and HL-60 leukemia cells while caspase-9 was determined in HL-60 cells.

caspase-9 in HL-60 cells = assay: Caspase-9 activation, fluorometric, HL-60; type: cell-based, human; details: HL-60, 50 μM, 6 hours
Procedure: as §1

[3] = test system: Ehrlich Ascitic Carcinoma solid tumor; assay: Ehrlich ascitic tumor (solid) growth inhibition in mice; type: in vivo, Swiss albino mice; details: 9 days, evaluated day 13
Procedure: FIG. 9. Tumor growth inhibition by boswellic acid analogs. Mice treated intraperitoneally with a compound (designated “c”) of formula 1, wherein R3=COCH2CH2CH3, R1=H, R4+R5=O, have shown 22% tumor growth inhibition at a dose of about 50 mg/kg of body weight, and 41% tumor growth inhibition at a dose of 100 mg/kg of body weight.
Swiss albino mice of 6-8 weeks, weighing 18-23 g of single sex were used. For the initiation of experiment, 1×10^7 cells of EAC (Ehrlich Ascitic Carcinoma) cells were transplanted intramuscularly (i.m.) in 32 mice for the development of solid tumors. The day of tumor transplantation was assigned as day 0. Next day (day-1) animals were randomly selected and divided into four groups having equal number of mice in each group of similar body wt. Groups I and II were treated with compound of formula 1 where R3=COCH2CH2CH3, R1=H, R4+R5=O at the dose of 50 mg/kg b, wt and 100 mg/kg b. wt. intraperitoneally, respectively. Group III received 0.2 ml of 0.85% normal saline and served as normal control while group IV serving as positive control was treated with 5-FU (22 mg/kg b. wt.) intraperitoneally. The total duration of treatment was of 9 days. The evaluation of effect of treatment on tumor was done on 13th day. Ehrlich ascites cells (1×10^7) were injected intramuscularly in the right thigh muscles and on the following day animals started receiving treatment intraperitoneally in 0.5% Tween-20 daily at the indicated doses for 9 days. The growth of tumor and the efficacy of compound of formula 1, where R3=COCH2CH2CH3, R1=H, R4+R5=O in inhibiting tumor growth were evaluated on day 13 in terms of the weight of the tumor in treated and control groups count. The determination of solid tumor growth inhibition against EAT was calculated as percent tumor growth regression according to the following: […]

HL-60 cells [4] = assay: Endogenous nitric oxide, DAF-2-DA flow cytometry; type: cell-based, human; details: HL-60, 4 hr
Procedure: FIG. 5. Copious early endogenous formation of nitric oxide by compound of formula 1 where R3=COCH2CH2CH3, R1=H, R4+R5=O in HL-60 cells. Nitric Oxide (NO) production was measured by flow cytometry in the FL1 channel using DAF-2-DA (an NO probe) after exposing HL-60 cells for 4 hours to indicated concentrations of SS-145. To investigate the contribution of iNOS to NO production, cells were pre-incubated with iNOS inhibitor sMIT (0.5 mM) for 1 hour prior to treatment with a compound designated “c” (a compound of formula 1 wherein R3=COCH2CH2CH3, R1=H, R4+R5=O). NO and peroxide generation are the early events leading to oxidative stress in the cells. […] It is possible that NO stimulated mitochondrial superoxide generation which together with NO may form peroxynitrite, a dangerous species in producing oxidative damage to the cells and responsible for production of apoptosis
Measurement of in situ NO generation involved the use of a fluorescent probe diaminofluoresceine-2-diacetate, which is permeated easily into the cells. Once inside the cell it binds NO soon it is formed and emits fluorescence [H. Kojima et al, 1998]. For this purpose, the HL-60 cells were incubated with DAF-2-DA for 30 min before being incubated with the indicated concentration of SS-145 for 4 hr. Cells were analyzed on flow cytometer in FL-1 channel for NO. […]

SMILES: CCCC(=O)OC1CCC2(C)C(CCC3(C)C2C(=O)C=C2C4C(C)C(C)CCC4(C)CCC23C)C1(C)C(=O)O (stereo not shown) [R3=COCH2CH2CH3, R1=H, R4+R5=O]
- peroxide positive cell population (HL-60 cells [1]; HL-60, 50 μg/ml, 6 hr): 79%
- ROS / peroxide generation (concentration dependence) (HL-60 cells [1]; HL-60, 6 hr, DCFH-DA): concentration related increase in ROS generation; also recorded: dose dependent increase
- caspase-3 activation [2]: about 50%
- caspase-9 activity stimulation (caspase-9 in HL-60 cells): 4-5 fold
- tumor growth inhibition ([3]; 50 mg/kg intraperitoneally): 22%
- tumor growth inhibition ([3]; 100 mg/kg intraperitoneally): 41%
- nitric oxide generation (HL-60 cells [4]): early generation of NO; also recorded: all the cells formed NO within 6 hr irrespective of the concentration

From patent publication US20090298938A1, “USE OF SEMI SYNTHETIC ANALOGUES OF BOSWELLIC ACIDS FOR ANTICANCER ACTIVITY” (COUNCIL OF SCIENTIFIC & INDUSTRIAL RESEARCH, priority 2008, published 2009)
